Results: US9730938B2, “Bruton's tyrosine kinase inhibitor combinations and uses thereof” (Pharmacyclics LLC, priority 2014, dated 2017)

Key:
Type in all cases: cell-based
[1] = tested on: Jeko cells; assay: 3-day CellTiter Glow combination study in Jeko cells with wild-type or mutant CARD11; settings: FIG. 6
Description: Jeko cells, a MCL cell line, and OCI-Ly3, a DLBCL cell line, were used for this experiment.
In summary, 10,000 cells were plated into 96-well plates and treated with different concentrations of inhibitors. 3 days later, CellTiter Glow reagent was added into the wells and the luminescent signals were measured.

[2] = tested on: TMD8; assay: Combined drug treatment cell viability, CellTiter-Glo assay (Example 2); settings: 3 days
[3] = tested on: OCI-LY-10; assay: as above; settings: 3 days
[4] = tested on: OCI-LY-3; assay: as above; settings: 3 days
[5] = tested on: HBL-1; assay: as above; settings: 3 days
[6] = tested on: U2932; assay: as above; settings: 3 days
[7] = tested on: SU-DHL-2; assay: as above; settings: 3 days
[8] = ibrutinib 0 nM, JAK3 10 μM / MCL-1 3 μM alone
[9] = ibrutinib 0.0512 nM, JAK3 10 μM / MCL-1 3 μM / medium alone
[10] = ibrutinib 0.256 nM, JAK3 10 μM / MCL-1 3 μM / medium alone
[11] = ibrutinib 1.28 nM, JAK3 10 μM / MCL-1 3 μM / medium alone
[12] = ibrutinib 6.4 nM, JAK3 10 μM / MCL-1 3 μM / medium alone
[13] = ibrutinib 32 nM, JAK3 10 μM / MCL-1 3 μM / medium alone
[14] = ibrutinib 160 nM, JAK3 10 μM / MCL-1 3 μM / medium alone
[15] = ibrutinib 800 nM, JAK3 10 μM / MCL-1 3 μM / medium alone
[16] = ibrutinib 20000 nM, JAK3 10 μM / MCL-1 3 μM / medium alone
[17] = ibrutinib 40000 nM, JAK3 10 μM / MCL-1 3 μM / medium alone

Structure (SMILES): CC(C)C[C@H](NC(=O)[C@H](Cc1ccccc1)NC(=O)c1cnccn1)B(O)O [Velcade]
- sensitization of Jeko cells containing the mutant CARD11 to ibrutinib treatment [1]: sensitized

Structure (SMILES): C[C@@H]1CCN(C(=O)CC#N)C[C@@H]1N(C)c1ncnc2[nH]ccc12 [tofacitinib]
- luminescence (CellTiter-Glo) [2, 8]: 42085.03
- luminescence (CellTiter-Glo) [2, 9]: 22758.56
- luminescence (CellTiter-Glo) [2, 10]: 22844.02
- luminescence (CellTiter-Glo) [2, 11]: 23722.74
- luminescence (CellTiter-Glo) [2, 12]: 22806.63
- luminescence (CellTiter-Glo) [2, 13]: 23770.82
- luminescence (CellTiter-Glo) [2, 14]: 23674.67
- luminescence (CellTiter-Glo) [2, 15]: 21620.76
- luminescence (CellTiter-Glo) [2, 16]: 6463.53
- luminescence (CellTiter-Glo) [2, 17]: 19962.15
- luminescence (CellTiter-Glo) [3, 8]: 55820.26
- luminescence (CellTiter-Glo) [3, 9]: 51855.78
- luminescence (CellTiter-Glo) [3, 10]: 42984.83
- luminescence (CellTiter-Glo) [3, 11]: 35330.40
- luminescence (CellTiter-Glo) [3, 12]: 19547.86
- luminescence (CellTiter-Glo) [3, 13]: 13432.93
- luminescence (CellTiter-Glo) [3, 14]: 13583.65
- luminescence (CellTiter-Glo) [3, 15]: 14159.61
- luminescence (CellTiter-Glo) [3, 16]: 14383.00
- luminescence (CellTiter-Glo) [3, 17]: 14751.73
- luminescence (CellTiter-Glo) [4, 8]: 60068.93
- luminescence (CellTiter-Glo) [4, 9]: 52005.22
- luminescence (CellTiter-Glo) [4, 10]: 56590.84
- luminescence (CellTiter-Glo) [4, 11]: 49371.84
- luminescence (CellTiter-Glo) [4, 12]: 52737.31
- luminescence (CellTiter-Glo) [4, 13]: 47894.25
- luminescence (CellTiter-Glo) [4, 14]: 42659.67
- luminescence (CellTiter-Glo) [4, 15]: 54193.44
- luminescence (CellTiter-Glo) [4, 16]: 59782.00
- luminescence (CellTiter-Glo) [4, 17]: 45217.97
- luminescence (CellTiter-Glo) [5, 8]: 78088.40
- luminescence (CellTiter-Glo) [5, 9]: 48007.16
- luminescence (CellTiter-Glo) [5, 10]: 49532.94
- luminescence (CellTiter-Glo) [5, 11]: 56756.95
- luminescence (CellTiter-Glo) [5, 12]: 46403.61
- luminescence (CellTiter-Glo) [5, 13]: 47226.84
- luminescence (CellTiter-Glo) [5, 14]: 41745.82
- luminescence (CellTiter-Glo) [5, 15]: 37551.94
- luminescence (CellTiter-Glo) [5, 16]: 17614.87
- luminescence (CellTiter-Glo) [5, 17]: 39380.73
- luminescence (CellTiter-Glo) [6, 8]: 74370.91
- luminescence (CellTiter-Glo) [6, 9]: 61632.23
- luminescence (CellTiter-Glo) [6, 10]: 61314.09
- luminescence (CellTiter-Glo) [6, 11]: 61987.79
- luminescence (CellTiter-Glo) [6, 12]: 58424.16
- luminescence (CellTiter-Glo) [6, 13]: 57921.57
- luminescence (CellTiter-Glo) [6, 14]: 55595.72
- luminescence (CellTiter-Glo) [6, 15]: 54213.58
- luminescence (CellTiter-Glo) [6, 16]: 24327.81
- luminescence (CellTiter-Glo) [6, 17]: 54924.70
- luminescence (CellTiter-Glo) [7, 8]: 133588.4
- luminescence (CellTiter-Glo) [7, 9]: 154568.4
- luminescence (CellTiter-Glo) [7, 10]: 167037.0
- luminescence (CellTiter-Glo) [7, 11]: 171896.5
- luminescence (CellTiter-Glo) [7, 12]: 165146.8
- luminescence (CellTiter-Glo) [7, 13]: 173773.3
- luminescence (CellTiter-Glo) [7, 14]: 165414.5
- luminescence (CellTiter-Glo) [7, 15]: 167444.0
- luminescence (CellTiter-Glo) [7, 16]: 2706.8
- luminescence (CellTiter-Glo) [7, 17]: 164389.1
